{"source": "patent US12396977B2", "about": "“Composition for treating degenerative brain diseases, containing 2-pentylfuran as active ingredient” (DAEGU GYEONGBUK INSTITUTE OF SCIENCE AND TECHNOLOGY, priority 2019, dated 2025)", "key": {"Olfr110 F104W mutation": {"target": "T1, Olfr110 F104W mutation (Mus musculus, UniProt A2RT31, F104W)", "T1 construct": "Full-length odorant receptor genes from mouse and human genomic DNA were amplified using appropriate primers; Lucy (N); Flag (N); Rho (N); expressed in transfected cells; host or cells: Hana3A cells", "T1 sequence (A2RT31 1-317 F104W)": "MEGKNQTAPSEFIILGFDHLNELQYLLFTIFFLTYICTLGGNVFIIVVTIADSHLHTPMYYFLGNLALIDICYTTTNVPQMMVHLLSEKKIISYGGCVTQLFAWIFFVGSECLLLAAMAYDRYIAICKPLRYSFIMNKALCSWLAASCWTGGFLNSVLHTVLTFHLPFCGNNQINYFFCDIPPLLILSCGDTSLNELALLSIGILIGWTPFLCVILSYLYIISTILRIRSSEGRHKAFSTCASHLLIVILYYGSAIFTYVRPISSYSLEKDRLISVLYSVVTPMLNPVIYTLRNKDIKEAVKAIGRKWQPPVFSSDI", "test": "Luciferase assay, Olfr110 F104W mutant", "type": "cell-based", "conditions": "increasing concentration of 2-PF", "excerpt": "Specific mutant vectors of the Olfr110 structure were generated using PfuUltra High-Fidelity DNA polymerase (#600380; Agilent Technologies). All mutant vectors (F102W; F104W; Y252F; Y259F; F102W/F104W; Y252F/Y259F; F102W/Y252F/Y259F; F104W/Y252F/Y259F; F102W/F104W/Y252F/Y259F) were sequenced in forward and reverse directions (Macrogen)."}, "primary microglia [1]": {"tested_on": "primary microglia", "test": "cAMP ELISA in primary microglia", "type": "cell-based, mouse", "conditions": "2-PF 0, 100, 500 μM", "experimental": "Primary microglia were inoculated into 48 well plates (2×10^5 cells/well) and treated with 30 μM forskolin (#F3917, Sigma Aldrich), or 2-PF (10, 100, 500 μM) for 30 minutes. In order to confirm the effect of an inhibitor, 1 mM SQ22536 (#17318-31-9; Calbiochem) was first pretreated for 30 minutes. The cells were lysed in a solution of 0.1 M of HCl with 1% Triton X 100 for 10 minutes, and the lysate was centrifuged at 600×g for 2 minutes. The supernatant was directly used for cAMP analysis using a cAMP ELISA kit (Enzo Life Science) according to the manufacturer's protocol. The optical density at 405 nm was measured using a VersaMax microplate reader (Molecular Devices)."}, "microglia": {"tested_on": "microglia", "test": "Ex vivo phagocytosis of microglia in brain slices (time-lapse confocal)", "design": "species or system mouse", "conditions": "brain slices of CX3CR1 GFP/+ mice", "experimental": "In this experiment, in order to examine the phagocytotic action of microglia, the brain of a 9-week-old male CX3CR1^GFP/+ mouse was cut to a thickness of 150 μm using a vibratome (Leica VT1200) and then stored in an ice-cooled artificial cerebrospinal fluid (aCSF: 120 mM NaCl, […], 25 mM NaHCO3, 1.25 mM NaH2PO4, 5 mM KCl, 1 mM CaCl2, 1 mM MgSO4, […], pH7.4). Thereafter, the sliced brain was cultured for removal of cell debris. Oxygenated aCSF was pretreated in a perfusion chamber at 37° C. for 2 hours. Subsequently, before culture, the sliced brain was cultured with 500 μl of aCSF containing 9.10×10^7 microspheres ([…]; #17458; Polysciences) and covered with a custom-made nylon grid. Time lapse videos were taken at intervals of 1 minute for 92 minutes using a confocal microscope. The number of phagocytosing microglia was calculated from the images."}, "[2]": {"test": "Disease behavior: mouse mobility (movement distance) after IP injection", "type": "in vivo", "conditions": "after intraperitoneal (IP) injection", "experimental": "It is known that an increase in disease behavior by activation of microglia is due to an increase in secreted cytokines. This experiment was conducted to confirm an increase in disease behavior with an increase in cytokines. The evaluation of disease behavior was made after IP injection of Sup or 2-PF into the mice.\nAfter IP injection, the mouse was placed in a space with four open sides (40×40×40 cm, white field, black wall), and after the position of the mouse was recorded for 30 minutes using a camera, the movement distance was calculated Thereafter, a pseudo-color heat map was drawn using EthoVision XT (Noldus, Netherlands)."}, "primary microglia [3]": {"tested_on": "primary microglia", "test": "Phagocytosis of FITC-dextran by primary microglia (FACS)", "type": "cell-based, mouse", "conditions": "100, 300, and 500 μM", "experimental": "Primary microglia were cultured for 24 hours after being seeded in a 24-well plate (5×10^5 cells/well). Cells were pre-cultured with 2-PF or Sup for 30 minutes, transferred to FITC-dextran (1 mg/ml, 20 mg/ml in PBS; #FD70S; Sigma Aldrich) in serum-free DMEM at 37° C. for […], and washed with PBS at 4° C. Cells were detached by 0.25% trypsin in PBS (#15090-046; Thermo Fisher Scientific) and the detached cells were analyzed by FACS Accuri™ C6 (BD Biosciences). Mean fluorescence intensity (MFI) was calculated by integrating fluorescence histograms under each condition using the aforementioned software. The phagocytosis index was defined as MFI using an untreated group as a standard."}}}
{"smiles": "CCCCCc1ccco1", "note": "[2-PF, 2-pentylfuran]", "values": [{"measurement": "luciferase activity of Olfr110 F104W mutant", "setting": "Olfr110 F104W mutation", "result": "completely lost"}, {"measurement": "cAMP concentration in primary microglia", "setting": "primary microglia [1]", "result": "increased by 2-PF treatment in a concentration dependent manner"}, {"measurement": "ex vivo phagocytosis activity of microglia", "setting": "microglia", "result": "increased"}, {"measurement": "mobility of the mouse (total movement distance)", "setting": "[2]", "result": "concentration-dependent decrease"}, {"measurement": "phagocytosis of microglia", "setting": "primary microglia [3]", "result": "significantly increased in a concentration-dependent manner"}]}
